The values that follow come from patent US9988379B2, “GPR40 receptor agonist, methods of preparing the same, and pharmaceutical compositions containing the same as an active agent” (LG CHEM, LTD., priority 2012, dated 2018).

The target of this assay is T1, human GPR40 (Homo sapiens, UniProt O14842).
T1 construct: expressed in transfected cells; host or cells: CHO-K1
Put plainly: Induction of Ca2+ (calcium flux assay) using human GPR40 expression cell line. In kind it is cell-based. As to conditions: read-out: EC0.5. Summed up:
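CHO-K1 cells stably transfected with human GPR40, plated 24 h, loaded 1 h at 37° C with Calcium 5 dye in HBSS/HEPES pH 7.4. Intracellular calcium change after compound addition read on FlexStation; concentration–response of relative activity used to derive EC0.5.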
For orientation: Calcium assays in cells follow changes in intracellular calcium, usually with a dye or a luminescent sensor.

T1 sequence (O14842 whole entry): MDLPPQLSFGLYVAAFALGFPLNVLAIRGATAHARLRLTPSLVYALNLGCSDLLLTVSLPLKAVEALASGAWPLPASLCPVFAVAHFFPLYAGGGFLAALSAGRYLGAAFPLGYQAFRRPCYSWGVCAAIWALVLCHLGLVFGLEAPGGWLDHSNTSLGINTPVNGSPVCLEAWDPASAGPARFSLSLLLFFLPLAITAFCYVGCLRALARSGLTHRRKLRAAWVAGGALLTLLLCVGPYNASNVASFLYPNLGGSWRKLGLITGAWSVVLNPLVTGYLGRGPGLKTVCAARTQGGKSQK

For the compound `CC#C[C@@H](CC(=O)O)c1ccc(OCc2ccc3cnn(Cc4ccc(C)nc4)c3c2)cc1` [Example 93, (S)-3-{4-[1-(6-methyl-pyridin-3-ylmethyl)-1H-indazol-6-ylmethoxy]-phenyl}-hex-4-ynoic acid], the EC50 was 0.05 to 0.5 µM. The value for `O=C(O)C[C@@H](c1ccc(OCc2cccc3c2cnn3Cc2ccccc2)cc1)c1ccon1` [Example 94, (S)-3-[4-(1-benzyl-1H-indazol-4-ylmethoxy)-phenyl]-3-isoxazol-3-yl-propanoic acid] was 0.06 µM. The value for `O=C(O)C[C@@H](c1ccc(OCc2ccc3ccn(Cc4ccc(F)cc4)c3n2)cc1)c1ccon1` [Example 95, (S)-3-{4-[1-(4-fluoro-benzyl)-1H-pyrrolo[2,3-b]pyridin-6-ylmethoxy]-phenyl}-3-isoxazol-3-yl-propanoic acid] was 0.1 µM.

For `CC(C)n1ncc2ccc(COc3ccc([C@H](CC(=O)O)c4ccon4)cc3)cc21` [Example 96, (S)-3-[4-(1-isopropyl-1H-indazol-6-ylmethoxy)-phenyl]-3-isoxazol-3-yl-propanoic acid], the EC50 was 0.03 µM. The value for `O=C(O)C[C@@H](c1ccc(OCc2ccc3cnn(CC4CC4)c3c2)cc1)c1ccon1` [Example 97, (S)-3-[4-(1-cyclopropylmethyl-1H-indazol-6-ylmethoxy)-phenyl]-3-isoxazol-3-yl-propanoic acid] was 0.05 µM; that for `CC(C)Cn1ccc2ccc(COc3ccc([C@H](CC(=O)O)c4ccon4)cc3)nc21` [Example 98, (S)-3-[4-(1-isobutyl-1H-pyrrolo[2,3-b]pyridin-6-ylmethoxy)-phenyl]-3-isoxazol-3-yl-propanoic acid] was 0.001 to 0.05 µM.

With `CC(C)n1cc2ccc(COc3ccc([C@H](CC(=O)O)c4ccon4)cc3)cc2n1` [Example 99, (S)-3-[4-(2-isopropyl-2H-indazol-6-ylmethoxy)-phenyl]-3-isoxazol-3-yl-propanoic acid], the EC50 was 1.3 µM. On to `CC(C)n1ncc2ccc(COc3ccc4c(c3)OCC4CC(=O)O)cc21` (stereo not drawn) [Example 100, [6-(1-isopropyl-1H-indazol-6-ylmethoxy)-2,3-dihydro-benzofuran-3-yl]-acetic acid], for which the EC50 was found to be 0.6 µM. The value for `Cn1ncc2ccc(COc3ccc([C@H](CC(=O)O)c4ccon4)cc3)cc21` [Example 101, (S)-3-isoxazol-3-yl-3-[4-(1-methyl-1H-indazol-6-ylmethoxy)-phenyl]-propanoic acid] was 0.09 µM; that for `O=C(O)C[C@@H](c1ccc(OCc2ccc3cn[nH]c3c2)cc1)c1ccon1` [Example 102, (S)-3-[4-(1H-indazol-6-ylmethoxy)-phenyl]-3-isoxazol-3-yl-propanoic acid] was 0.4 µM; that for `O=C(O)C[C@@H](c1ccc(OCc2ccc3cnn(CC4CCCC4)c3c2)cc1)c1ccon1` [Example 103, (S)-3-[4-(1-cyclopentylmethyl-1H-indazol-6-ylmethoxy)-phenyl]-3-isoxazol-3-yl-propanoic acid] was 0.01 µM. Regarding `O=C(O)CC1COc2cc(OCc3ccc4cnn(Cc5ccccc5)c4c3)ccc21` (stereo not drawn) [Example 105, [6-(1-benzyl-1H-indazol-6-ylmethoxy)-2,3-dihydro-benzofuran-3-yl]-acetic acid], the EC50 turned out to be 0.4 µM. The value for `O=C(O)CCc1ccc(OCc2ccc3cnn(Cc4ccccc4)c3c2)cc1F` [Example 106, 3-[4-(1-benzyl-1H-indazol-6-ylmethoxy)-2-fluoro-phenyl]-propanoic acid] was 0.001 to 0.05 µM. Then `O=C(O)CCc1ccc(OCc2ccc3cnn(CC4CCCC4)c3c2)cc1F` [Example 107, 3-[4-(1-cyclopentylmethyl-1H-indazol-6-ylmethoxy)-2-fluoro-phenyl]-propanoic acid], with 0.2 µM. For `O=C(O)CC1CCc2cc(OCc3ccc4cnn(Cc5ccccc5)c4c3)ccc21` (stereo not drawn) [Example 109, [5-(1-benzyl-1H-indazol-6-ylmethoxy)-indan-1-yl]-acetic acid], the EC50 stood at 0.4 µM. Then `O=C(O)CC1CCCc2cc(OCc3ccc4cnn(Cc5ccccc5)c4c3)ccc21` (stereo not drawn) [Example 110, [6-(1-benzyl-1H-indazol-6-ylmethoxy)-1,2,3,4-tetrahydro-naphthalen-1-yl]-acetic acid], with 0.2 µM. Then `CC#C[C@@H](CC(=O)O)c1ccc(OCc2ccc3c(cnn3Cc3ccccc3)c2)cc1` [Example 111, (S)-3-[4-(1-benzyl-1H-indazol-5-ylmethoxy)-phenyl]-hex-4-ynoic acid], with 0.001 to 0.05 µM; and `CC#C[C@@H](CC(=O)O)c1ccc(OCc2ccc3nn(Cc4ccccc4)cc3c2)cc1` [Example 112, (S)-3-[4-(2-benzyl-2H-indazol-5-ylmethoxy)-phenyl]-hex-4-ynoic acid], with 0.001 to 0.05 µM.

As for `O=C(O)CC1COc2cc(OCc3ccc4cn(Cc5ccccc5)nc4c3)ccc21` (stereo not drawn) [Example 113, [6-(2-benzyl-2H-indazol-6-ylmethoxy)-2,3-dihydro-benzofuran-3-yl]-acetic acid], the EC50 turned out to be 9.1 µM. Turning to `CC#C[C@@H](CC(=O)O)c1ccc(OCc2ccc3cnn(CC(C)C)c3c2)cc1` [Example 114, (S)-3-[4-(1-isobutyl-1H-indazol-6-ylmethoxy)-phenyl]-hex-4-ynoic acid], the EC50 lay in the range of 0.001 to 0.05 µM. Then `CC#C[C@@H](CC(=O)O)c1ccc(OCc2ccc3ccn(CC(C)C)c3n2)cc1` [Example 115, (S)-3-[4-(1-isobutyl-1H-pyrrolo[2,3-b]pyridin-6-ylmethoxy)-phenyl]-hex-4-ynoic acid], with 0.001 to 0.05 µM; and `CC#C[C@@H](CC(=O)O)c1ccc(OCc2ccc3c(cnn3C(C)C)c2)cc1` [Example 116, (S)-3-[4-(1-isopropyl-1H-indazol-5-ylmethoxy)-phenyl]-hex-4-ynoic acid], with 0.001 to 0.05 µM; and `CC(CC(=O)O)c1ccc(OCc2ccc3cnn(Cc4ccccc4)c3c2)cc1` (stereo not drawn) [Example 117, 3-[4-(1-benzyl-1H-indazol-6-ylmethoxy)-phenyl]-butyric acid], with 0.05 µM. The value for `O=C(O)CC1CCc2cc(OCc3ccc4c(cnn4Cc4ccccc4)c3)ccc21` (stereo not drawn) [Example 118, [5-(1-benzyl-1H-indazol-5-ylmethoxy)-indan-1-yl]-acetic acid] was 0.2 µM. The value for `O=C(O)CC1CCCc2cc(OCc3ccc4c(cnn4Cc4ccccc4)c3)ccc21` (stereo not drawn) [Example 119, [6-(1-benzyl-1H-indazol-5-ylmethoxy)-1,2,3,4-tetrahydro-naphthalen-1-yl]-acetic acid] was 0.06 µM; that for `O=C(O)CC1CCOc2cc(OCc3ccc4c(cnn4Cc4ccccc4)c3)ccc21` (stereo not drawn) [Example 120, [7-(1-benzyl-1H-indazol-5-ylmethoxy)-chroman-4-yl]-acetic acid] was 0.04 µM. For the compound `O=C(O)CC1COc2cc(OCc3ccc4ccn(Cc5ccccc5)c4n3)ccc21` (stereo not drawn) [Example 121, [6-(1-benzyl-1H-pyrrolo[2,3-b]pyridin-6-ylmethoxy)-2,3-dihydro-benzofuran-3-yl]-acetic acid], the EC50 is 0.3 µM.

Regarding `CC#C[C@@H](CC(=O)O)c1ccc(OCc2cc3c(cnn3Cc3ccccc3)cc2F)cc1` [Example 122, (S)-3-[4-(1-benzyl-5-fluoro-1H-indazol-6-ylmethoxy)-phenyl]-hex-4-ynoic acid], the EC50 lay within 0.001 to 0.05 µM.

Take `CC#C[C@@H](CC(=O)O)c1ccc(OCc2ccc3c(ccn3Cc3ccccc3)c2)cc1` [Example 123, (S)-3-[4-(1-benzyl-1H-indol-5-ylmethoxy)-phenyl]-hex-4-ynoic acid]: the EC50 is 0.001 to 0.05 µM.

As for `CC#C[C@@H](CC(=O)O)c1ccc(OCc2ccc3c(c2)nnn3Cc2ccccc2)cc1` [Example 124, (S)-3-[4-(1-benzyl-1H-benzotriazol-5-ylmethoxy)-phenyl]-hex-4-ynoic acid], the EC50 stood at 0.05 µM. Then `CC#C[C@@H](CC(=O)O)c1ccc(OCc2ccc3c(c2)ncn3Cc2ccccc2)cc1` [Example 125, (S)-3-[4-(1-benzyl-1H-benzoimidazol-5-ylmethoxy)-phenyl]-hex-4-ynoic acid], with 0.02 µM. The value for `CC#C[C@@H](CC(=O)O)c1ccc(OCc2cc(C)c3c(cnn3Cc3ccccc3)c2)cc1` [Example 126, (S)-3-[4-(1-benzyl-7-methyl-1H-indazol-5-ylmethoxy)-phenyl]-hex-4-ynoic acid] was 0.001 to 0.05 µM; that for `CC#C[C@@H](CC(=O)O)c1ccc(OCc2cc(C)c3nn(Cc4ccccc4)cc3c2)cc1` [Example 127, (S)-3-[4-(2-benzyl-7-methyl-2H-indazol-5-ylmethoxy)-phenyl]-hex-4-ynoic acid] was 0.001 to 0.05 µM; that for `Cc1cc(COc2ccc3c(c2)OCC3CC(=O)O)cc2cnn(Cc3ccccc3)c12` (stereo not drawn) [Example 128, [6-(1-benzyl-7-methyl-1H-indazol-5-ylmethoxy)-2,3-dihydro-benzofuran-3-yl]-acetic acid] was 0.05 to 0.5 µM. The value for `Cc1cc(COc2ccc3c(c2)OCCC3CC(=O)O)cc2cnn(Cc3ccccc3)c12` (stereo not drawn) [Example 129, [7-(1-benzyl-7-methyl-1H-indazol-5-ylmethoxy)-chroman-4-yl]-acetic acid] was 0.08 µM; that for `CC#C[C@@H](CC(=O)O)c1ccc(OCc2cc(C)c3c(cnn3CC(C)C)c2)cc1` [Example 130, (S)-3-[4-(1-isobutyl-7-methyl-1H-indazol-5-ylmethoxy)-phenyl]-hex-4-ynoic acid] was 0.001 to 0.05 µM; that for `Cc1cc(COc2ccc3c(c2)OCCC3CC(=O)O)cc2cnn(CC(C)C)c12` (stereo not drawn) [Example 131, [7-(1-isobutyl-7-methyl-1H-indazol-5-ylmethoxy)-chroman-4-yl]-acetic acid] was 0.05 to 0.5 µM.

As for `CC#C[C@@H](CC(=O)O)c1ccc(OCc2ccc3c(cnn3CC(C)C)c2)cc1` [Example 132, (S)-3-[4-(1-isobutyl-1H-indazol-5-ylmethoxy)-phenyl]-hex-4-ynoic acid], the EC50 is 0.001 to 0.05 µM. Turning to `CC(C)Cn1ncc2cc(COc3ccc4c(c3)OCCC4CC(=O)O)ccc21` (stereo not drawn) [Example 133, [7-(1-isobutyl-1H-indazol-5-ylmethoxy)-chroman-4-yl]-acetic acid], the EC50 was 0.4 µM.
